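Five compound concentrations were applied to cells in 96-well plates for 48 hours; endpoints were derived by simple linear interpolation of the resulting dose-response curve. GI50: concentration for 50% inhibition of growth. TGI denotes the concentration required for complete inhibition of growth.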
Tests used:
Test in all cases: growth of human tumour cells (NCI), 48 h; in the data active = GI50 below about 0.43 µM; inactive = the rest
[1] = system: MOLT-4 leukemia
[2] = system: OVCAR-8 ovarian
[3] = system: K-562 leukemia
[4] = system: SF-295 CNS
[5] = system: SK-MEL-2 melanoma
[6] = system: HOP-62 NSCLC
[7] = system: TK-10 renal
[8] = system: SF-539 CNS
[9] = system: SNB-75 CNS
[10] = system: HOP-92 NSCLC
[11] = system: OVCAR-4 ovarian
[12] = system: HCT-116 colon
[13] = system: M14 melanoma
[14] = system: SK-OV-3 ovarian
[15] = system: MDA-MB-435
[16] = system: UACC-257 melanoma
[17] = system: DU-145 prostate
[18] = system: OVCAR-5 ovarian
[19] = system: HCT-15 colon
[20] = system: NCI/ADR-RES ovarian
[21] = system: IGROV1 ovarian
[22] = system: SNB-19 CNS
[23] = system: COLO 205 colon
[24] = system: LOX IMVI melanoma
[25] = system: SK-MEL-28 melanoma
[26] = system: UO-31 renal
[27] = system: PC-3 prostate
[28] = system: CCRF-CEM leukemia
[29] = system: T-47D breast
[30] = system: SW-620 colon
[31] = system: A549 NSCLC
[32] = system: MDA-MB-231 breast
[33] = system: MCF7 breast
[34] = system: KM12 colon
[35] = system: ACHN renal
[36] = system: NCI-H522 lung
[37] = system: HT29 colon
[38] = system: NCI-H460 lung
[39] = system: RXF 393 renal
[40] = system: RPMI-8226 leukemia
[41] = system: UACC-62 melanoma
[42] = system: NCI-H23 lung
[43] = system: U251 CNS
[44] = system: SK-MEL-5 melanoma
[45] = system: OVCAR-3 ovarian
[46] = system: SR leukemia
[47] = system: HL-60(TB) leukemia
[48] = system: 786-0 renal
[49] = system: EKVX NSCLC
[50] = system: SN12C renal
[51] = system: CAKI-1 renal
[52] = system: A498 renal
[53] = system: NCI-H226 lung
[54] = system: SF-268 CNS
[55] = system: HCC-2998 colon
[56] = system: MALME-3M melanoma
[57] = system: HS 578T breast

C[C@]12CCc3sc(Nc4ccc(F)cc4F)nc3C1=CC[C@@H]1[C@@H]2CC[C@]2(C)C(=O)CC[C@@H]12
inactive: GI50 [1] 2.44 µM | GI50 [2] 2.96 µM | GI50 [3] 2.43 µM
> 100 µM: TGI [1] | TGI [2] | TGI [3]

O=[N+]([O-])c1ccc(C2CC3(c4ccccc4)ON=C(c4ccccc4)N3c3ccccc3S2)cc1 (stereo unspecified)
active: GI50 [7] 0.0149 µM
7.95 µM: TGI [7]
inactive: GI50 [4] 80.8 µM | GI50 [5] 40.3 µM | GI50 [6] 58.9 µM | GI50 [3] 83.6 µM | GI50 [8] 68.9 µM | GI50 [9] 37.4 µM | GI50 [10] 78.2 µM | GI50 [11] 76.1 µM | GI50 [12] 19.7 µM

COc1cc2c(cc1OC)-c1ncc3cc(OC)c(OC)cc3c1C2
inactive: GI50 [13] > 50 µM | GI50 [14] > 50 µM | GI50 [15] > 50 µM | GI50 [1] 25.4 µM | GI50 [16] > 50 µM | GI50 [17] > 50 µM | GI50 [18] > 50 µM | GI50 [19] > 50 µM | GI50 [20] > 50 µM | GI50 [21] 20.2 µM | GI50 [22] > 50 µM | GI50 [23] > 50 µM | GI50 [24] > 50 µM | GI50 [25] > 50 µM | GI50 [26] > 50 µM | GI50 [27] > 50 µM | GI50 [28] 25.9 µM | GI50 [29] > 50 µM | GI50 [30] > 50 µM | GI50 [31] > 50 µM | GI50 [32] > 50 µM | GI50 [4] > 50 µM | GI50 [33] > 50 µM | GI50 [34] > 50 µM | GI50 [35] > 50 µM | GI50 [36] 24.5 µM | GI50 [37] > 50 µM | GI50 [5] > 50 µM | GI50 [38] > 50 µM | GI50 [2] > 50 µM | GI50 [3] > 50 µM | GI50 [7] > 50 µM | GI50 [39] > 50 µM | GI50 [8] > 50 µM | GI50 [40] 14 µM | GI50 [41] > 50 µM | GI50 [42] > 50 µM | GI50 [9] > 50 µM | GI50 [43] > 50 µM | GI50 [44] > 50 µM | GI50 [45] > 50 µM | GI50 [10] > 50 µM | GI50 [11] > 50 µM | GI50 [46] 31.8 µM | GI50 [47] 16.2 µM | GI50 [48] > 50 µM | GI50 [12] > 50 µM | GI50 [49] > 50 µM | GI50 [50] > 50 µM | GI50 [51] > 50 µM
> 50 µM: TGI [13] | TGI [14] | TGI [15] | TGI [1] | TGI [16] | TGI [17] | TGI [18] | TGI [19] | TGI [20] | TGI [21] | TGI [22] | TGI [23] | TGI [24] | TGI [25] | TGI [26] | TGI [27] | TGI [28] | TGI [29] | TGI [30] | TGI [31] | TGI [32] | TGI [4] | TGI [33] | TGI [34] | TGI [35] | TGI [36] | TGI [37] | TGI [5] | TGI [38] | TGI [2] | TGI [3] | TGI [7] | TGI [39] | TGI [8] | TGI [40] | TGI [41] | TGI [42] | TGI [9] | TGI [43] | TGI [44] | TGI [45] | TGI [10] | TGI [11] | TGI [46] | TGI [47] | TGI [48] | TGI [12] | TGI [49] | TGI [50] | TGI [51]

CCCCCCCCCCCCC(NC(C)=O)(C(=O)OCC)C(=O)OCC
26.9 µM: TGI [25] | TGI [30] | TGI [4]
28.5 µM: TGI [54] | TGI [43]
62.4 µM: TGI [1]
33.1 µM: TGI [8]
27.3 µM: TGI [13] | TGI [18]
21.2 µM: TGI [33]
44.8 µM: TGI [40]
25.6 µM: TGI [22]
26.7 µM: TGI [32]
25.7 µM: TGI [14]
23.7 µM: TGI [20]
19.6 µM: TGI [41]
27 µM: TGI [39]
48.2 µM: TGI [46]
20.7 µM: TGI [29]
25.3 µM: TGI [35]
25.2 µM: TGI [24]
28.9 µM: TGI [34]
21.1 µM: TGI [27]
22 µM: TGI [50]
19.2 µM: TGI [12]
31.7 µM: TGI [15]
26.6 µM: TGI [52]
29.3 µM: TGI [48]
26.3 µM: TGI [23]
> 100 µM: TGI [3]
26.2 µM: TGI [55]
25.4 µM: TGI [45] | TGI [10]
37.2 µM: TGI [21]
32.5 µM: TGI [31]
41.6 µM: TGI [28]
28.6 µM: TGI [17]
16 µM: TGI [44]
22.2 µM: TGI [11]
24 µM: TGI [38]
27.2 µM: TGI [53]
27.4 µM: TGI [51]
23 µM: TGI [19]
32.3 µM: TGI [2]
45.8 µM: TGI [57]
27.5 µM: TGI [26] | TGI [6]
26.1 µM: TGI [16] | TGI [49]
inactive: GI50 [13] 12.7 µM | GI50 [14] 12.6 µM | GI50 [15] 12.6 µM | GI50 [1] 18.2 µM | GI50 [16] 11.7 µM | GI50 [52] 13.5 µM | GI50 [17] 15.1 µM | GI50 [18] 13.7 µM | GI50 [19] 9.38 µM | GI50 [20] 10.3 µM | GI50 [21] 12.6 µM | GI50 [22] 12.8 µM | GI50 [23] 12.8 µM | GI50 [24] 11.8 µM | GI50 [25] 13.5 µM | GI50 [26] 7.39 µM | GI50 [53] 12.5 µM | GI50 [27] 7.03 µM | GI50 [28] 16.8 µM | GI50 [54] 13.4 µM | GI50 [29] 5.43 µM | GI50 [55] 12.5 µM | GI50 [30] 13 µM | GI50 [31] 14.3 µM | GI50 [32] 12.6 µM | GI50 [4] 11.2 µM | GI50 [33] 7.41 µM | GI50 [34] 11.1 µM | GI50 [35] 12.6 µM | GI50 [56] 12.5 µM | GI50 [38] 7.65 µM | GI50 [6] 13.9 µM | GI50 [2] 12.7 µM | GI50 [3] 7.55 µM | GI50 [39] 13.7 µM | GI50 [8] 16 µM | GI50 [40] 10.8 µM | GI50 [41] 4.88 µM | GI50 [42] 10.8 µM | GI50 [9] 11.3 µM | GI50 [43] 12.4 µM | GI50 [44] 3.87 µM | GI50 [45] 11.7 µM | GI50 [10] 12.2 µM | GI50 [11] 10.4 µM | GI50 [46] 6.94 µM | GI50 [57] 14 µM | GI50 [48] 14.9 µM | GI50 [12] 5.83 µM | GI50 [49] 6.99 µM | GI50 [50] 10.2 µM | GI50 [51] 10.6 µM
23.8 µM: TGI [9]
29.1 µM: TGI [56]
24.8 µM: TGI [42]

Source: PubChem BioAssay (NCI)
